We go through eleven compounds from PMC8524670 (Pharmacology Research & Perspectives, 2021).

Structures can show the parent of a compound that is named as a salt.

The target of data set [1] is T1, P-gp (Homo sapiens, UniProt P08183). Description: P-gp inhibition in Caco-2 cells. Format: in vitro ADME. Conditions: human, Caco-2, probe digoxin.
For the next data set, the target named is T2, OATP1B1 (Homo sapiens, UniProt Q9Y6L6).
T2 sequence (Q9Y6L6 1-691): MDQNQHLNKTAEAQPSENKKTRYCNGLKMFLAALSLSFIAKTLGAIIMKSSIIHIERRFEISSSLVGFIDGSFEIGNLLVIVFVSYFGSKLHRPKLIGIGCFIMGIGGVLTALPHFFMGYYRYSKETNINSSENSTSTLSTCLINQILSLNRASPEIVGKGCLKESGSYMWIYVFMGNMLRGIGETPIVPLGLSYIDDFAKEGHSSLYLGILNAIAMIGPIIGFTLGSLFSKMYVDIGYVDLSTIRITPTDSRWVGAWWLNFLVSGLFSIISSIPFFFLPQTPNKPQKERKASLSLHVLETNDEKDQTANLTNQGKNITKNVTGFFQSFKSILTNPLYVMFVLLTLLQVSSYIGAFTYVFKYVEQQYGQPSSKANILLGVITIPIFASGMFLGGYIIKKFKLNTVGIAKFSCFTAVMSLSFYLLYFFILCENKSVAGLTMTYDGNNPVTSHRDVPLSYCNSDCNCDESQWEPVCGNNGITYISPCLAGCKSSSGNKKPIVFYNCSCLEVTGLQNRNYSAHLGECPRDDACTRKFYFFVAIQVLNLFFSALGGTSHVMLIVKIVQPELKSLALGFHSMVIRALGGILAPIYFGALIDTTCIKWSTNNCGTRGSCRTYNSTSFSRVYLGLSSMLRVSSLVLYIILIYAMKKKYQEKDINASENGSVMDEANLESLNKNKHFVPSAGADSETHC
Description: SLC transportation assay in HEK293 cells. Format: in vitro ADME. To be noted: control substrate, 20 µM.

The target in the next data set is T3, OATP1B3 (Homo sapiens, UniProt Q9NPD5).
T3 sequence (Q9NPD5 1-702): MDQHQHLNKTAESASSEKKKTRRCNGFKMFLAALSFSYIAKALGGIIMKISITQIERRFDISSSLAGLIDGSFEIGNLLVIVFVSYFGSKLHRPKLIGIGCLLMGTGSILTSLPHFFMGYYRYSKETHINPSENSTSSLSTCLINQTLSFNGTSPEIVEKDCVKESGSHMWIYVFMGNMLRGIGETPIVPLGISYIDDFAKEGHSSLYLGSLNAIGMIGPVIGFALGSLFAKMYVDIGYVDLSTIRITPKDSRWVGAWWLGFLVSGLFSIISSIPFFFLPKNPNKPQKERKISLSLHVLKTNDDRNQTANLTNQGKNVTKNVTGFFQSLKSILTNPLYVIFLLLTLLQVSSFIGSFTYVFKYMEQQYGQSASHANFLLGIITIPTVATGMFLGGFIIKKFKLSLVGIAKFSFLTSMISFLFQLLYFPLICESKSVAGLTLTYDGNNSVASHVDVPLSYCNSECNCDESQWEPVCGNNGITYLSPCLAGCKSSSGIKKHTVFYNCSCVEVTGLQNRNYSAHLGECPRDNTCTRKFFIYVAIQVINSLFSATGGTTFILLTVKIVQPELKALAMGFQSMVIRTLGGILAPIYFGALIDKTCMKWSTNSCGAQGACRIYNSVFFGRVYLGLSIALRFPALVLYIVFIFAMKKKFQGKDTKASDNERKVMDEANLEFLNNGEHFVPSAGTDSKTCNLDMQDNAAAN
Description: SLC transportation assay in HEK293 cells. Type of data set: in vitro ADME. To be noted: control substrate, 20 µM.

The target of data set [2] is T4, OAT3 (Homo sapiens, UniProt Q8TCC7).
T4 sequence (Q8TCC7 1-542): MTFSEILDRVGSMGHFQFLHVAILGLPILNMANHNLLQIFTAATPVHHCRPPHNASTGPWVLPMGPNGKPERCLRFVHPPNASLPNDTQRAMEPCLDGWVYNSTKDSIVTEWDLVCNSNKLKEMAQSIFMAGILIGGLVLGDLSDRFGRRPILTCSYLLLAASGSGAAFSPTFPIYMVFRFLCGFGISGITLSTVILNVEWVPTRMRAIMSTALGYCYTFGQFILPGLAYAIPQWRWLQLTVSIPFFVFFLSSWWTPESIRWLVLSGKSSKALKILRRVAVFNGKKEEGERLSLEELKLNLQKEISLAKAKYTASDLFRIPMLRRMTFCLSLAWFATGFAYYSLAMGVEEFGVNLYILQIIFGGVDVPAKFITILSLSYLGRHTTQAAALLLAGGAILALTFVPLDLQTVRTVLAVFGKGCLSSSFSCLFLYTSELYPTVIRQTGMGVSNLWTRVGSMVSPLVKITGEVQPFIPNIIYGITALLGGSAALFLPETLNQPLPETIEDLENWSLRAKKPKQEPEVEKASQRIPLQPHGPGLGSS
Description: SLC transportation assay in HEK293 cells. Format: in vitro ADME. Conditions: control substrate, 20 µM.

Data set [3] concerns the target T5, OCT2 (Homo sapiens, UniProt O15244).
T5 sequence (O15244 1-555): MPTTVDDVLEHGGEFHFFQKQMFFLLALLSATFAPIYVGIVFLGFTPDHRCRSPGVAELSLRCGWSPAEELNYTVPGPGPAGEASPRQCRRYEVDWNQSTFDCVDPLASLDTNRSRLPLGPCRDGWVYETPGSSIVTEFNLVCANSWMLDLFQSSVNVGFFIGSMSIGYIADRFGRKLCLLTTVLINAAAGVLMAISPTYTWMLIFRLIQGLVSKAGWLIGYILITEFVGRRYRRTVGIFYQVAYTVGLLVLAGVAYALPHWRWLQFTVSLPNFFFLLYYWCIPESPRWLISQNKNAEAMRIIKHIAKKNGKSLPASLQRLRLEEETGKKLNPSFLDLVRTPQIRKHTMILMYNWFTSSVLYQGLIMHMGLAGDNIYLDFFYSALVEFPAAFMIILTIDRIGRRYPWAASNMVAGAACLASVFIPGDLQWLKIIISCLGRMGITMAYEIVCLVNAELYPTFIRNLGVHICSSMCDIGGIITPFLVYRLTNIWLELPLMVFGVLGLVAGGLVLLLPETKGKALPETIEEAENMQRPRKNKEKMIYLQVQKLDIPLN
In words: SLC transportation assay in HEK293 cells. Format: in vitro ADME. To be noted: control substrate, 50 µM.

A further data set has as its system CYP1A2. Description: in vitro. Conditions: human, positive control omeprazole 50 µM.
For data set [4], the target named is T4, OAT3. In words: SLC inhibition assay in HEK293 cells. Format: in vitro ADME. To be noted: human, HEK293 cells overexpressing OAT3 (and MOCK cells), probe estrone sulfate.
Data set [5] addresses T5, OCT2. Description: SLC inhibition assay in HEK293 cells. Type of data set: in vitro ADME. Conditions: human, HEK293 cells overexpressing OCT2 (and MOCK cells), probe metformin.
The test system of another data set is CYP3A. To be noted: cited from earlier work.
The target of data set [6] is T1, P-gp. Conditions: healthy subjects; cited from earlier work.
The subject of another data set is CYP2B6. Description: CYP induction in human hepatocytes. Type of data set: in vitro ADME. Conditions: human, cryopreserved human hepatocytes.
For data set [7], the target named is T6, human BCRP (Homo sapiens, UniProt Q9UNQ0).
T6 sequence (Q9UNQ0 1-655): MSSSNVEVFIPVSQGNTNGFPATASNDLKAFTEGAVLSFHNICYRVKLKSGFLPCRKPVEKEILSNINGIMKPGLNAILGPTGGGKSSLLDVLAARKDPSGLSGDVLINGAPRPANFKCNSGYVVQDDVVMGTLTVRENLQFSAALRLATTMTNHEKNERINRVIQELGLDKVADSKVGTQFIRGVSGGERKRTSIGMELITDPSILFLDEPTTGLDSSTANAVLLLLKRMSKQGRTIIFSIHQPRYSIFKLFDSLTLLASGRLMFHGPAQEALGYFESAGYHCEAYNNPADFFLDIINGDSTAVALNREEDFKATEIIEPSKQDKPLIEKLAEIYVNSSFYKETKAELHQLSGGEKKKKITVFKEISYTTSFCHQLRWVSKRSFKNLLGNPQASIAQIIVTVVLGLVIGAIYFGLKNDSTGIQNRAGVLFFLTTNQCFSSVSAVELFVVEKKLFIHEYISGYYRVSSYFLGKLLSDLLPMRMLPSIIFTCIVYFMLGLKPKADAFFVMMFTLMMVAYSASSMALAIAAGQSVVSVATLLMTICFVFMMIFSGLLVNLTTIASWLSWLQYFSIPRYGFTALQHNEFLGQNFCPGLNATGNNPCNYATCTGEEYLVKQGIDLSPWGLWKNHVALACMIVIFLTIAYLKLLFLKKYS
In words: BCRP transportation in inside-out vesicles. Type of data set: in vitro ADME. Conditions: BCRP vesicles, LFY 10 μM probe substrate.

The target in data set [8] is T6, human BCRP. In words: BCRP inhibition in vesicles. Type of data set: in vitro ADME. Conditions: BCRP inhibition assay, buffer vehicle.

T1 sequence (P08183 whole entry): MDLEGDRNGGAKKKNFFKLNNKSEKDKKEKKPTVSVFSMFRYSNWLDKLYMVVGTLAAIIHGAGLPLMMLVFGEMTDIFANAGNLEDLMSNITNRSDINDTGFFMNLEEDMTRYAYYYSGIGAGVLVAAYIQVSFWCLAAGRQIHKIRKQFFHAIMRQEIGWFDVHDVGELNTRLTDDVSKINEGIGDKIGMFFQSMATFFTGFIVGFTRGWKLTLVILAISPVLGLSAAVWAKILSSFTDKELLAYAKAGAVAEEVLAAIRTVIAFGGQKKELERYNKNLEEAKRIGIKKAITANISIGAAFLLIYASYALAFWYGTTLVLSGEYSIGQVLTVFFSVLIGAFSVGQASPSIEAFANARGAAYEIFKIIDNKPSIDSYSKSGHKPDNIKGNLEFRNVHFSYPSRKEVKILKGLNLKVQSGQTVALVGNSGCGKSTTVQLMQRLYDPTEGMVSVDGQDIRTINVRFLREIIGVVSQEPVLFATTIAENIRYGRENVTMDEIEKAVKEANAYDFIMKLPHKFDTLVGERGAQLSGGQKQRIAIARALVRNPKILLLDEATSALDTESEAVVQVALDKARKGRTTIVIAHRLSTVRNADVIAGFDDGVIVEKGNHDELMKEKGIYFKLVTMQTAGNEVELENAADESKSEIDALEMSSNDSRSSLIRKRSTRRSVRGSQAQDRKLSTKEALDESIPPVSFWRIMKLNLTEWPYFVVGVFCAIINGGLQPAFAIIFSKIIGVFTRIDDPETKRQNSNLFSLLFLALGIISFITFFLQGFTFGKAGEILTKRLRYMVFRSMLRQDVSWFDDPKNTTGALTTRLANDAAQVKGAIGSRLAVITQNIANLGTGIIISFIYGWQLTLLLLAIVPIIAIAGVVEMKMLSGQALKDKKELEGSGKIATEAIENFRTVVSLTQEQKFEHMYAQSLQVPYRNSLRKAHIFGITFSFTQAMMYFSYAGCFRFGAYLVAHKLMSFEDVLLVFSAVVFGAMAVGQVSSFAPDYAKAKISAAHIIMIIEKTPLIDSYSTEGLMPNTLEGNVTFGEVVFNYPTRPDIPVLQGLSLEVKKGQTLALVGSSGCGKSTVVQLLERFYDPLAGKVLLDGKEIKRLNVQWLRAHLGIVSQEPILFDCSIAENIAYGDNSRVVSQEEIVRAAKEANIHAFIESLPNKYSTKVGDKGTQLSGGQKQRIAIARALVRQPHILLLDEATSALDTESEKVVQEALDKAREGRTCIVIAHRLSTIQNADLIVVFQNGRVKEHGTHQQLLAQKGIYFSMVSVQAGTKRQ

The term Papp B→A denotes the apparent permeability from the basolateral to the apical side of a cell layer. The compound `C[C@H]1O[C@@H](O[C@H]2[C@@H](O)C[C@H](O[C@H]3[C@@H](O)C[C@H](O[C@H]4CC[C@@]5(C)[C@H](CC[C@@H]6[C@@H]5C[C@@H](O)[C@]5(C)[C@@H](C7=CC(=O)OC7)CC[C@]65O)C4)O[C@@H]3C)O[C@@H]2C)C[C@H](O)[C@@H]1O` [Digoxin, reference compound] returned a Papp B→A at 120 min, 10 µM at P-gp [1] of 15.4 ± 0.4 ×10⁻⁶ cm/s. Take `C[C@]12CC[C@@H]3c4ccc(O)cc4CC[C@H]3[C@@H]1CC[C@@H]2O[C@@H]1O[C@H](C(=O)O)[C@@H](O)[C@H](O)[C@H]1O` [Estradiol‐17β‐glucuronide, reference compound]: the Uptake ratio at OATP1B1 came out at 38.5 ± 5.5; at OATP1B3, 5.82 ± 0.62.

Take `C[C@]12CC[C@@H]3c4ccc(OS(=O)(=O)O)cc4CC[C@H]3[C@@H]1CCC2=O` [Estrone sulfate, reference compound]: the Uptake ratio on OAT3 [2] is listed as 16.1 ± 0.45. As to `CN(C)C(=N)N=C(N)N` [Metformin, reference compound], on OCT2 [3], the Uptake ratio is listed as 3.49 ± 0.26. Usually fold induction stands for the ratio of treated to control signal. Read a high fold induction as a strong induction. In the case of `COc1ccc2[nH]c([S+]([O-])Cc3ncc(C)c(OC)c3C)nc2c1` (stereo not shown) [Omeprazole], the fold induction at 2 days, 50 µM in the data set with CYP1A2 (Fold induction of activity) came to 42 ± 6.4; in the data set on CYP1A2 (Fold induction of mRNA level), 82 ± 94.

Regarding `CCCN(CCC)S(=O)(=O)c1ccc(C(=O)O)cc1` [Probenecid, reference compound], the activity at 50 µM on OAT3 [4] was 12.5 ± 8%. Compound `C=C[C@H]1C[N@@]2CC[C@H]1C[C@@H]2[C@@H](O)c1ccnc2ccc(OC)cc12` [Quinidine, reference compound] yielded an activity at 500 µM on OCT2 [5] of 31.5 ± 8%. Consider `CC[C@H](Nc1ncnc2[nH]cnc12)c1nc2cccc(F)c2c(=O)n1-c1ccccc1` [idelalisib], for which, in the data set with CYP3A, the “Increase of exposure of midazolam” value is 5.15 fold. For `CCOc1cc2ncc(C#N)c(Nc3ccc(OCc4ccccn4)c(Cl)c3)c2cc1NC(=O)/C=C/CN(C)C` [neratinib], at P-gp [6], the “Increase of AUC of digoxin” value is given as 32% and the “Increase of mean digoxin C max” value is on record as 54%. Regarding `CCC1(c2ccccc2)C(=O)NC(=O)NC1=O` [phenobarbital, reference compound], the fold induction at 2 days, 1000 µM in the data set with CYP2B6 is 6.4 ± 3; with CYP2B6 (probe bupropion) it was 9.6 ± 5.4. For “Lucifer Yellow [LFY, reference compound]”, the “Uptake ratio (ATP versus AMP)” value at human BCRP [7] is reported as 17.4 ± 0.31 fold. For the same compound, the “Uptake ratio of LFY” value at human BCRP [8] is recorded as 14.9 fold.
